# Patent publication US6376666B1 (Nauchno-Issledovatelsky Institut Farmakologii Rossiiskoi …, priority 1994, dated 2002)
# Assays:
# Balb/c mice = assay: open-field test, Balb/c mice (passive type of emotional-stress reaction); type: in vivo; parameters: key to Total activity: sum of all locomotor activity counts (crossings + rearings) in 3 min; settings: for Central activity (crossings) / Peripheral activity (crossings) / Total activity / Number of defecations / Vertical activity (rearings): M ± mx
# Summary of the method: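 Male mice, 20-22 g, dosed i.p. in water 30 min before a 3-min open-field test after 1 min in darkness; peripheral, central, rearing and total activity plus defecations recorded; Student t-test. Anxiolysis read as Balb/c activation, sedation as C57B1/6 inhibition.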
# cats = assay: hemodynamics and activity of intact heart in cats under anesthesia; type: in vivo; settings: cats i.v., doses of 0,5 mg/kg-2,0 mg/kg
# Experimental: The effects of compounds on the hemodynamics and activity of intact heart were studied in cats under anesthesia. The experiments were carried out under conditions of open chest. The phase curve of aortic blood flow was the main index of cardiac activity. The compounds were administered i.v. in physiological solution. The t-Student' test was used to estimate the statistical significance.
compound,measurement,setting,value
"CCOc1ccc2nc(SCCN3CCOCC3)[nH]c2c1 [XII, 2-[2-(Morpholino)ethylthio]-5-ethoxybenzimidazole]",Central activity (crossings),Balb/c mice; 0.001 mg/kg i.p.,1.6 ± 1.6
same,Peripheral activity (crossings),Balb/c mice; 0.001 mg/kg i.p.,28.9 ± 8.8
same,Total activity,Balb/c mice; 0.001 mg/kg i.p.,30.3 ± 9.4
same,Central activity (crossings),Balb/c mice; 0.01 mg/kg i.p.,2.6 ± 1.4
same,Number of defecations,Balb/c mice; 0.01 mg/kg i.p.,3.1 ± 0.6
same,Peripheral activity (crossings),Balb/c mice; 0.01 mg/kg i.p.,79.8 ± 9.3
same,Total activity,Balb/c mice; 0.01 mg/kg i.p.,83.2 ± 11.3
same,Vertical activity (rearings),Balb/c mice; 0.01 mg/kg i.p.,0.9 ± 0.6
same,Number of defecations,Balb/c mice; 0.05 mg/kg i.p.,2.0 ± 0.8
same,Peripheral activity (crossings),Balb/c mice; 0.05 mg/kg i.p.,37.1 ± 6.7
same,Total activity,Balb/c mice; 0.05 mg/kg i.p.,37.1 ± 6.7
same,Number of defecations,Balb/c mice; 0.1 mg/kg i.p.,2.4 ± 0.7
same,Peripheral activity (crossings),Balb/c mice; 0.1 mg/kg i.p.,70.6 ± 10.6
same,Total activity,Balb/c mice; 0.1 mg/kg i.p.,73.7 ± 12.7
same,Central activity (crossings),Balb/c mice; 0.5 mg/kg i.p.,2.9 ± 1.5
same,Number of defecations,Balb/c mice; 0.5 mg/kg i.p.,1.6 ± 0.8
same,Peripheral activity (crossings),Balb/c mice; 0.5 mg/kg i.p.,77.6 ± 14.2
same,Total activity,Balb/c mice; 0.5 mg/kg i.p.,80.5 ± 15.7
same,Central activity (crossings),Balb/c mice; 1.0 mg/kg i.p.,0.5 ± 0.3
same,Number of defecations,Balb/c mice; 1.0 mg/kg i.p.,2.8 ± 0.9
same,Peripheral activity (crossings),Balb/c mice; 1.0 mg/kg i.p.,66.3 ± 11.1
same,Total activity,Balb/c mice; 1.0 mg/kg i.p.,66.8 ± 11.4
same,Central activity (crossings),Balb/c mice; 5.0 mg/kg i.p.,2.3 ± 1.5
same,Number of defecations,Balb/c mice; 5.0 mg/kg i.p.,0.8 ± 0.5
same,Peripheral activity (crossings),Balb/c mice; 5.0 mg/kg i.p.,43.0 ± 4.4
same,Total activity,Balb/c mice; 5.0 mg/kg i.p.,45.3 ± 5.9
same,Central activity (crossings),Balb/c mice; 10.0 mg/kg i.p.,0.9 ± 0.3
same,Number of defecations,Balb/c mice; 10.0 mg/kg i.p.,2.0 ± 0.7
same,Peripheral activity (crossings),Balb/c mice; 10.0 mg/kg i.p.,54.8 ± 8.3
same,Total activity,Balb/c mice; 10.0 mg/kg i.p.,55.7 ± 8.6
same,Central activity (crossings),Balb/c mice; 30.0 mg/kg i.p.,1.1 ± 0.7
same,Number of defecations,Balb/c mice; 30.0 mg/kg i.p.,4.5 ± 1.4
same,Peripheral activity (crossings),Balb/c mice; 30.0 mg/kg i.p.,50.5 ± 7.9
same,Total activity,Balb/c mice; 30.0 mg/kg i.p.,51.7 ± 8.7
same,Vertical activity (rearings),Balb/c mice; 30.0 mg/kg i.p.,0.1 ± 0.1
same,Number of defecations,Balb/c mice; 50.0 mg/kg i.p.,1.6 ± 0.5
same,Peripheral activity (crossings),Balb/c mice; 50.0 mg/kg i.p.,11.0 ± 1.6
same,Total activity,Balb/c mice; 50.0 mg/kg i.p.,11.0 ± 1.6
same,"effect on the behavior (locomotor activity) of Balb/c mice in open-field test, in words","Balb/c mice; i.p., screening",able to activate the behavior of Balb/c mice
same,"effect on heart rate, in words",cats,small and short bradycardia
